Measured values reported in patent US20120328696A1, “ANTI-PARKINSONIAN COMPOUND ACETYLSALICYLIC ACID MALTOL ESTER” (Hutecs Korea Pharmaceutical Co., Ltd., priority 2008, published 2012).

Experiments:
Type in all cases: in vivo
[1] = tested on: GPx-1 (+/+)- and GPx-1 (−/−)-mice; assay: Rota-rod test after MA; conditions: MA 8 mg/kg i.p. x4, GPx-1 (+/+) and (−/−) mice
Experimental: (§1) The mice received four times of MA (8 mg/kg, ip) or saline as a 2 hr-time interval. Chemicals (AME, EBS, and PKC inhibitors) were administrated for 5 consecutive days (twice daily), and were given 2 times at 4 hr and 30 min before the first MA injection as shown in the experimental schedule. Animals were sacrificed at 4 hrs and 3 days after the final MA administration.
The apparatus (Ugo Basile model 7650, Comerio, VA, Italy) consisted of a base platform and a rotating rod with a nonslippery surface. The rod was placed at a height of 15 cm from the base. The rod, 30 cm in length, was divided into 5 equal sections by 6 opaque disks (so that the subjects cannot be distracted by one another) To assess motor performance, the mice first trained on the apparatus 2 minutes at a constant rate of 4 r.p.m. per 30 s prior to the test. The test was performed 30 minutes after training and an accelerating paradigm was applied, starting from a rate of 4 r.p.m. to a maximum speed of 40 r.p.m., then the rotation speed was kept constant at 40 r.p.m. for a maximum of 300 s. The duration for which the animal could maintain balance on the rotating drum was measured as the rotarod latency, with a maximal cut-off time of 300 s.

[2] = tested on: glutathione peroxidase (GPx)-1; assay: Striatal GPx-1-like immunoreactivity after MA; conditions: p.o.; AME 50, EBS 20, rottlerin 20 mg/kg; MA 8 mg/kg i.p. x4; GPx-1 (+/+) mice
Experimental: as §1
(§2) Animals were sacrificed at 4 hours and 3 days after the last MA injection. They were anesthetized with 60% urethane and perfused transcardially with 50 ml of 50 mM phosphate buffered saline (PBS), followed by 50 ml of a mixture of 4% paraformaldehyde in PBS. The rate of perfusion was 50 ml/min. The brains were removed, post-fixed at 4° C. for 24 h in the same fixative and then cryoprotected in 30% sucrose in PBS. The brains were cut on a horizontal sliding microstome into 40 μm transverse free-floading sections (Kim et al., 1999).
(§3) The immunocytochemistry was performed as described previously (Kim et al., 2000a, b). Briefly, prior to incubation with the primary antibodies, sections were preincubated with 0.3% hydrogen peroxide in PBS for 30 min (to block endogenous peroxidase activity), then in PBS containing 0.4% Triton X-100 for 20 min and 1% normal serum for 20 min. The sections were then incubated for 48 h at 4° C. in primary antibody against tyrosine hydroxylase (1:500, Chemicon, Termecula, Calif., USA), GPx1 (1:500, AbFrontier, Seoul, Korea), PKC (1:200, Santa Cruz biotechnology INC, CA, USA) or F4/80 (1:50, Serotec, Raleigh, N.C., USA). The sections were further incubated with secondary biotinylated antisera (1:1000 dilution; Vector, Brulingame, Calif.) for 1 hr, and immersed in avidin-biotin-peroxidase complex (ABC Elite kit, Vector) for 1 hr. Sections were always washed three times with PBS (pH 7.4) between each incubation step. 3,3′-diaminobenzidine (DAB) was used as a chromogen.
The western blot assays was performed as described previously (Kim et al., 2003). […]

p53 = assay: Striatal p53 expression after MA (western blot); conditions: p.o.; AME 50, EBS 20, rottlerin 20 mg/kg; MA 8 mg/kg i.p. x4; GPx-1 (+/+) and (−/−) mice
Experimental: as §1
(§4) The western blot assays was performed as described previously (Kim et al., 2003). Tissues were homogenized in lysis buffer, containing 200 mM Tris HCl (pH 6.8), 1% SDS, 5 mM EGTA (ethylene glycol tetraacetic acid), 5 mM EDTA (ethylenediaminetetraacetic acid), 10% glycerol, 1× phosphatase inhibitor cocktail I, 1× protease inhibitor cocktail. Lysate was centrifuged at 12,000×g for 30 min and supernatant fraction was used for Western blot analysis. Proteins (20-50 ug/lane) were separated by 6%, 8%, 10% or 15% sodium dodecyl sulfate-polyacrylamide gel electrophoresis and transferred onto the PVDF membranes. Following transfer, the membranes were preincubated with 5% non-fat milk and incubated overnight at 4° C. with primary antibody against β-actin (1:50000, Sigma, St. Louis, Mo., USA), TH (1:5000, Chemicon), TH phosphor-Ser 19 (1:1000, Chemicon,), TH phosphor-Ser 31 (1:500, Chemicon), TH phosphor-Ser 40 (1:500, Chemicon), F4/80 (1:500, Serotec), GPx1 (1:2500, AbFrontier), PKC (1:5000, Santa Cruz biotechnology, Santa Cruz, Calif., USA), p53 (1:5000, Cell signaling, Beverly, Mass., USA), MDM2 (1:1000, BD Pharmingen, San Jose, Calif., USA), MDM2 phospho-Ser 166 (1:1000, cell signaling), BDNF (1:500, Chemicon), GDNF (1:250, Santa Cruz), COX-2 (1:2000, Cayman, Ann Arbor, MC, USA), IL-6 (1:2000, Abcam, Cambridge, Mass., USA), TNF-a (1:1000, R&D Systems, Mckinley place NE, NM, USA), IFN-γ (1:500, Chemicon) or Iba-1 (1:500, Wako, Osaka, Japan). And then, membranes were incubated with HRP-conjugated secondary anti-rabbit IgG (1:1000, GE healthcare, Piscataway, N.J., USA), anti-mouse IgG (1:1000, Sigma) or anti-goat IgG (1:1000, Sigma) for 2 h. […]

tyrosine hydroxylase = assay: Striatal and nigral TH-like immunoreactivity after MA (immunocytochemistry); conditions: p.o., AME 50, EBS 20, rottlerin 20 mg/kg, MA 8 mg/kg i.p. x4, GPx-1 (+/+) and (−/−) mice; for effect on MA-induced reduction in striatal TH-IR: striatum; for effect on MA-induced nigral reduction in TH-IR: substantia nigra pars compacta
Experimental: as §1, §2, §3

TH phospho-ser 40 = assay: Striatal phospho-TH-ser 40 after MA (western blot); conditions: p.o.; AME 50, EBS 20, rottlerin 20 mg/kg; MA 8 mg/kg i.p. x4; GPx-1 (+/+) and (−/−) mice
Experimental: as §1, §4

[3] = p.o., AME 25 or 50, EBS 10 or 20, rottlerin 10 or 20 mg/kg

With O=c1c2ccccc2[se]n1-c1ccccc1 [EBS, 2-phenyl-1,2-benzisoselenazol-3(2H)-one] as the molecule, how does the “effect on MA-induced impairment in rota-rod performance” value [1, 3] read?
The value was “inhibited these effects in a dose-dependent manner”.

And the “effect on MA-induced decrease in striatal GPx-1-IR” value [2]?
Its value is “inhibited MA-induced decrease in the GPx-1-IR”.

What about the “effect on MA-induced increase in striatal p53 expression” value (p53) of the same molecule?
The value was “significantly inhibited MA-induced increase in p53 expression”.

What about the “effect on MA-induced reduction in striatal TH-IR” value (tyrosine hydroxylase) of the same molecule?
Its value is “attenuated this reduction in striatal TH-IR”.

What about the “effect on MA-induced nigral reduction in TH-IR” value (tyrosine hydroxylase) of the same molecule?
Its value is “significantly attenuated MA-induced nigral reduction in TH-IR”.

What about the “effect on MA-induced decrease in phospho-TH-ser 40” value (TH phospho-ser 40) of the same molecule?
Its value is “significantly blocked”.

Which results are given for CC(=O)c1c(O)c(C)c(O)c(Cc2c(O)c3c(c(C(=O)/C=C/c4ccccc4)c2O)OC(C)(C)C=C3)c1O [rottlerin]?
effect on MA-induced impairment in rota-rod performance ([1]; PKC inhibitors intra-striatal (chelerythrine 0.2 ug/head, rottlerin 3.0 ug/head significant)): attenuated the MA-behavioral impairments in a dose-dependent manner; effect on MA-induced impairment in rota-rod performance [1, 3]: inhibited these effects in a dose-dependent manner; effect on MA-induced decrease in striatal GPx-1-IR [2]: inhibited MA-induced decrease in the GPx-1-IR; effect on MA-induced increase in striatal p53 expression (p53): significantly inhibited MA-induced increase in p53 expression; effect on MA-induced reduction in striatal TH-IR (tyrosine hydroxylase): attenuated this reduction in striatal TH-IR; effect on MA-induced nigral reduction in TH-IR (tyrosine hydroxylase): significantly attenuated MA-induced nigral reduction in TH-IR; effect on MA-induced decrease in phospho-TH-ser 40 (TH phospho-ser 40): significantly blocked

CC(=O)Oc1ccccc1C(=O)Oc1c(C)occc1=O [AME, 3-(2-methyl-4-pyronyl)-2-acetyloxybenzoate] was tested. Which “effect on MA-induced impairment in rota-rod performance” value [1, 3] did it give?
The value was “inhibited these effects in a dose-dependent manner”.

And the “effect on MA-induced decrease in striatal GPx-1-IR” value [2]?
The value was “inhibited MA-induced decrease in the GPx-1-IR”.

What about the “effect on MA-induced increase in striatal p53 expression” value (p53) of the same molecule?
The value was “significantly inhibited MA-induced increase in p53 expression”.

What about the “effect on MA-induced reduction in striatal TH-IR” value (tyrosine hydroxylase) of the same molecule?
Its value is “attenuated this reduction in striatal TH-IR”.

What about the “effect on MA-induced nigral reduction in TH-IR” value (tyrosine hydroxylase) of the same molecule?
The value was “significantly attenuated MA-induced nigral reduction in TH-IR”.

And the “effect on MA-induced decrease in phospho-TH-ser 40” value (TH phospho-ser 40)?
The value was “significantly blocked”.
